Experimental data from patent US9540391B2, “Isomannide derivatives as inhibitors of soluble epoxide hydrolase” (SANOFI, priority 2013, dated 2017).
Counter-ions that a name gives are not always drawn.

Biological target: T1, recombinant sEH (Homo sapiens, UniProt P34913)
T1 construct: made in house; host or cells: Sf9 insect cells
T1 sequence (P34913 1-555): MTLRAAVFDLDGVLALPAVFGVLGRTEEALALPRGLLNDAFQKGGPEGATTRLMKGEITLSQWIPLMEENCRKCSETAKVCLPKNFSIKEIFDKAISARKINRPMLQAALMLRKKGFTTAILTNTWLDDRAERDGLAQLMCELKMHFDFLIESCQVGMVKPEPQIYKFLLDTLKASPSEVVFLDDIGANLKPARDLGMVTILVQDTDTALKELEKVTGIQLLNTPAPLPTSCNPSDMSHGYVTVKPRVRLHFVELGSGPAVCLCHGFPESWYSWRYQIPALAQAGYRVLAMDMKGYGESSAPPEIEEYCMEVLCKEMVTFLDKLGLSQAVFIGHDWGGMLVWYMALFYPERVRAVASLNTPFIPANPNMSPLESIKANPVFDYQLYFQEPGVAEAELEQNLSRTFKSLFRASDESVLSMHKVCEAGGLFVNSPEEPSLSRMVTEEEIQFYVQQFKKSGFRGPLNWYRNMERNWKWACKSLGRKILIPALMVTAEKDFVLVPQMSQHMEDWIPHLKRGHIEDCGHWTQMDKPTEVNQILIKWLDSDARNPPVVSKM
Assay: biochemical screening assay for inhibition of soluble epoxide hydrolase (fluorometric, Phome substrate)
Summary of the method: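 Human sEH from Sf9 cells (2 nM final) was pre-incubated 15 min at 30 °C with compound (0.0001–10 μM), then reacted 60 min at 30 °C with 5 μM Phome in 25 mM Hepes/0.01% albumin. Fluorescence of released 6-methoxy-2-naphthaldehyde was read before substrate and at end; IC50 from % inhibition.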

| IC50 | Structure (SMILES) |
| --- | --- |
| 0.011 µM | O=C(Nc1ccc(OC(F)(F)F)cc1)N[C@H]1CO[C@H]2[C@@H]1OC[C@@H]2/C=C\c1ccccc1 [Example 332, 1-[(3S,3aR,6S,6aR)-6-((Z)-Styryl)-hexahydro-furo[3,2-b]furan-3-yl]-3-(4-trifluoromethoxy-phenyl)-urea] |
| 0.012 µM | Cc1ncccc1O[C@H]1CO[C@H]2[C@@H]1OC[C@@H]2NC(=O)NC1CCC(C(C)(C)O)CC1 (stereo partly drawn) [Example 280, 1-[4-(1-Hydroxy-1-methyl-ethyl)-cyclohexyl]-3-[(3S,3aR,6S,6aS)-6-(2-methyl-pyridin-3-yloxy)-hexa-hydro-furo[3,2-b]furan-3-yl]-urea] |
| 0.081 µM | O=C(Nc1ccc(F)cc1)NC1COC2C(CCc3ccccc3)COC12 [Example 360, 1-(4-Fluoro-phenyl)-3-[(3S,3aR,6R)-6-((S)-phenethyl)-hexahydro-furo[3,2-b]furan-3-yl]-urea] |
| 0.005 µM | O=C(NC1CCCCC1)N[C@H]1CO[C@H]2[C@@H]1OC[C@@H]2Oc1ccccc1F [Example 95, 1-Cyclohexyl-3-[(3S,3aR,6S,6aS)-6-(2-fluoro-phenoxy)-hexahydro-furo[3,2-b]furan-3-yl]-urea] |
| 0.192 µM | O=C(N[C@H]1CO[C@H]2[C@@H]1OC[C@@H]2Oc1ccc(F)cc1)N[C@H]1CCCC[C@@H]1OCc1ccccc1 [Example 163, 1-((1S,2S)-2-Benzyloxy-cyclohexyl)-3-[(3S,3aR,6S,6aS)-6-(4-fluoro-phenoxy)-hexahydro-furo[3,2-b]furan-3-yl]-urea] |
| 0.021 µM | C[C@@H](NC(=O)N[C@H]1CO[C@H]2[C@@H]1OC[C@@H]2Oc1ccc(F)cc1)C1CCCCC1 [Example 165, 1-((R)-1-Cyclohexyl-ethyl)-3-[(3S,3aR,6S,6aS)-6-(4-fluoro-phenoxy)-hexahydro-furo[3,2-b]furan-3-yl]-urea] |
| 0.002 µM | Cc1csc(S[C@H]2CO[C@H]3[C@@H]2OC[C@@H]3NC(=O)NC2CCCCC2)n1 [Example 58, 1-Cyclohexyl-3-[(3S,3aR,6S,6aS)-6-(4-methyl-thiazol-2-ylsulfanyl)-hexa-hydro-furo[3,2-b]furan-3-yl]-urea] |
| 0.003 µM | O=C(NC1CCCCC1)N[C@H]1CO[C@H]2[C@@H]1OC[C@@H]2Oc1cccc([N+](=O)[O-])c1 [Example 140, 1-Cyclohexyl-3-[(3S,3aR,6S,6aS)-6-(3-nitro-phenoxy)-hexahydro-furo[3,2-b]furan-3-yl]-urea] |
| 0.002 µM | Cc1ncccc1OC1COC2C(NC(=O)NCCc3ccccc3OC(F)(F)F)COC12 [Example 206, 1-[(3S,3aR,6S,6aS)-6-(2-Methyl-pyridin-3-yloxy)-hexahydro-furo[3,2-b]furan-3-yl]-3-[2-(2-trifluoro-methoxy-phenyl)-ethyl]-urea] |
| 0.317 µM | Cc1ncccc1O[C@H]1CO[C@H]2[C@@H]1OC[C@@H]2NC(=O)NC1CC(=O)N(C(C)C)C1 (stereo partly drawn) [Example 246, 1-(1-Isopropyl-5-oxo-pyrrolidin-3-yl)-3-[(3S,3aR,6S,6aS)-6-(2-methyl-pyridin-3-yloxy)-hexahydro-furo[3,2-b]furan-3-yl]-urea] |
| 0.001 µM | Cc1cc(O[C@H]2CO[C@H]3[C@@H]2OC[C@@H]3NC(=O)NC2CCCCC2)cc(C)n1 [Example 67, 1-Cyclohexyl-3-[(3S,3aR,6S,6aS)-6-(2,6-dimethyl-pyridin-4-yloxy)-hexa-hydro-furo[3,2-b]furan-3-yl]-urea] |
| 1.25 µM | O=C(Nc1cccc(C(F)(F)F)c1)N[C@H]1CO[C@H]2[C@@H]1OC[C@@H]2C#Cc1ccccc1 [Example 299, 1-((3S,3aR,6S,6aR)-6-Phenylethynyl-hexahydro-furo[3,2-b]furan-3-yl)-3-(3-trifluoromethyl-phenyl)-urea] |
| 0.149 µM | COc1cc(NC(=O)N[C@H]2CO[C@H]3[C@H](CCc4ccccc4)CO[C@@H]32)cc(OC)c1 [Example 352, 1-(3,5-Dimethoxy-phenyl)-3-[(3S,3aR,6R)-6-((S)-phenethyl)-hexa-hydro-furo[3,2-b]furan-3-yl]-urea] |
| 0.577 µM | Cc1ncccc1O[C@H]1CO[C@H]2[C@@H]1OC[C@@H]2NC(=O)NC(C)CN1CCCC1=O (stereo partly drawn) [Example 244, 1-[1-Methyl-2-(2-oxo-pyrrolidin-1-yl)-ethyl]-3-[(3S,3aR,6S,6aS)-6-(2-methyl-pyridin-3-yloxy)-hexahydro-furo[3,2-b]furan-3-yl]-urea] |
| 0.454 µM | O=C(NC1CCCCC1)N[C@H]1CO[C@H]2[C@@H]1OC[C@@H]2Oc1ccccc1-c1nnn[nH]1 [Example 26, 1-Cyclohexyl-3-{(3S,3aR,6S,6aS)-6-[2-(1H-tetrazol-5-yl)-phenoxy]-hexahydro-furo[3,2-b]furan-3-yl}-urea] |
| 0.004 µM | O=C(NC1CCCCC1)N[C@H]1CO[C@H]2[C@@H]1OC[C@@H]2Oc1ccc(F)cc1 [Example 24, 1-Cyclohexyl-3-[(3S,3aR,6S,6aS)-6-(4-fluoro-phenoxy)-hexahydro-furo[3,2-b]furan-3-yl]-urea] |
| 0.042 µM | O=C(NC1CCCCC1)N[C@H]1CO[C@H]2[C@@H]1OC[C@@H]2Oc1cncnc1 [Example 44, 1-Cyclohexyl-3-[(3S,3aR,6S,6aS)-6-(pyrimidin-5-yloxy)-hexahydro-furo[3,2-b]furan-3-yl]-urea] |
| 0.014 µM | CC1CSc2c(O[C@H]3CO[C@H]4[C@@H]3OC[C@@H]4NC(=O)NC3CCCCC3)csc21 (stereo partly drawn) [Example 145, 1-Cyclohexyl-3-[(3S,3aR,6S,6aS)-6-(6-methyl-5,6-dihydro-thieno[3,2-b]thiophen-3-yloxy)-hexahydro-furo[3,2-b]furan-3-yl]-urea] |
| 0.001 µM | O=C(NC1CCCCC1)N[C@H]1CO[C@H]2[C@@H]1OC[C@@H]2Oc1ccc(N2CCCC2)nc1 [Example 70, 1-cyclohexyl-3-[(3S,3aR,6S,6aS)-6-(6-pyrrolidin-1-yl-pyridin-3-yloxy)-hexahydro-furo[3,2-b]furan-3-yl]-urea] |
| 2.06 µM | Cc1ncccc1O[C@H]1CO[C@H]2[C@@H]1OC[C@@H]2NC(=O)NC1(c2cccnc2)CC1 [Example 238, 1-[(3S,3aR,6S,6aS)-6-(2-Methyl-pyridin-3-yloxy)-hexahydro-furo[3,2-b]furan-3-yl]-3-(1-pyridin-3-yl-cyclopropyl)-urea] |
| 0.073 µM | Cc1ncccc1O[C@H]1CO[C@H]2[C@@H]1OC[C@@H]2NC(=O)NC1(C)CCCCC1 [Example 249, 1-(1-Methyl-cyclohexyl)-3-[(3S,3aR,6S,6aS)-6-(2-methyl-pyridin-3-yloxy)-hexahydro-furo[3,2-b]furan-3-yl]-urea] |
| 0.004 µM | O=C(NC1CCCCC1)N[C@H]1CO[C@H]2[C@@H]1OC[C@@H]2Oc1cccnc1 [Example 96, 1-Cyclohexyl-3-[(3S,3aR,6S,6aS)-6-(pyridin-3-yloxy)-hexahydro-furo[3,2-b]furan-3-yl]-urea; trifluoroacetate] |
| 0.015 µM | Cc1ncccc1O[C@H]1CO[C@H]2[C@@H]1OC[C@@H]2NC(=O)NCc1ccc(Cl)s1 [Example 208, 1-(5-Chloro-thiophen-2-ylmethyl)-3-[(3S,3aR,6S,6aS)-6-(2-methyl-pyridin-3-yloxy)-hexahydro-furo[3,2-b]furan-3-yl]-urea] |
| 0.018 µM | O=C(NCCc1ccccc1)N[C@H]1CO[C@H]2[C@@H]1OC[C@@H]2/C=C\c1ccccc1 [Example 331, 1-Phenethyl-3-[(3S,3aR,6S,6aR)-6-((Z)-styryl)-hexahydro-furo[3,2-b]furan-3-yl]-urea] |
| 0.037 µM | Cc1ncccc1OC1COC2C(NC(=O)NCC3CCCCC3(C)O)COC12 [Example 242, 1-((1R,2R)-2-Hydroxy-2-methyl-cyclohexylmethyl)-3-[(3S,3aR,6S,-6aS)-6-(2-methyl-pyridin-3-yloxy)-hexahydro-furo[3,2-b]furan-3-yl]-urea] |
| 0.044 µM | Cc1ncccc1O[C@H]1CO[C@H]2[C@@H]1OC[C@@H]2NC(=O)NC(C)c1ccc(S(C)(=O)=O)cc1 (stereo partly drawn) [Example 187, 1-[1-(4-Methanesulfonyl-phenyl)-ethyl]-3-[(3S,3aR,6S,6aS)-6-(2-methyl-pyridin-3-yloxy)-hexahydro-furo[3,2-b]furan-3-yl]-urea] |
| 4.46 µM | O=C(N[C@H]1CO[C@H]2[C@@H]1OC[C@@H]2Oc1ccc(F)cc1)NC1(c2cccs2)CCOCC1 [Example 169, 1-[(3S,3aR,6S,6aS)-6-(4-Fluoro-phenoxy)-hexahydro-furo[3,2-b]furan-3-yl]-3-(4-thiophen-2-yl-tetrahydro-pyran-4-yl)-urea] |
| 0.047 µM | C[C@H](NC(=O)N[C@H]1CO[C@H]2[C@@H]1OC[C@@H]2Oc1ccc(F)cc1)c1ccccc1 [Example 161, 1-[(3S,3aR,6S,6aS)-6-(4-Fluoro-phenoxy)-hexahydro-furo[3,2-b]furan-3-yl]-3-((S)-1-phenyl-ethyl)-urea] |
| 0.017 µM | Cc1cc(C)cc(NC(=O)N[C@H]2CO[C@H]3[C@H](CCc4ccccc4)CO[C@@H]32)c1 [Example 353, 1-(3,5-Dimethyl-phenyl)-3-[(3S,3aR,6R)-6-((S)-phenethyl)-hexa-hydro-furo[3,2-b]furan-3-yl]-urea] |

| Structure (SMILES) | IC50 |
| --- | --- |
| Cc1ncccc1O[C@H]1CO[C@H]2[C@@H]1OC[C@@H]2NC(=O)NC(C)(C)COC(C)(C)C [Example 226, 1-(2-tert-Butoxy-1,1-dimethyl-ethyl)-3-[(3S,3aR,6S,6aS)-6-(2-methyl-pyridin-3-yloxy)-hexahydro-furo[3,2-b]furan-3-yl]-urea] | 0.475 µM |
